Experiment: pH dependent solubility
Format: physicochemical
Settings: acidic conditions of the stomach (around pH 2) vs near neutral conditions of the lower intestine (around pH 7)

- pH dependent solubility: marked pH dependent solubility
SMILES: CN(CCOc1ccc(CC2SC(=O)NC2=O)cc1)c1ccccn1 (stereo not shown) [Compound A, 5-[4-[2-(N-methyl-N-(2 pyridyl)amino)ethoxy]benzyl]thiazolidine-2,4-dione]
